A short description of data set [1]: Water solubility of tackifiers. The format is physicochemical. The text has this: Altering the identity of the acid anhydride altered tackifier properties.
The nature of data set [2]: Glass transition temperature by DSC. The class given is physicochemical. The following applies: measured by DSC. On the procedure: Tack was measured by modifications to the […] standard. On an Instron® load frame, the tackifier to be tested was applied to a glass slide at a thickness of 0.1 mm. The slide was then clamped to a flat surface and, perpendicularly, a type 304 stainless steel probe measuring 5 mm in diameter, with a 90° polished tip was place above the slide. The probe was then lowered at a rate of 0.5 mm sec^−1 and contacted the surface at an average force of 1.5 N. The probe was then held on the surface for 1.0 sec and then raised at a rate of 0.5 mm sec^−1. Tack was measured as the maximum force required to remove the probe from the surface of the tackifier. Tg was measured by DSC.
On the technique in general: DSC measures the heat that a sample takes up or gives off during a temperature scan.

Data on five compounds can be found in patent US10280241B2, “Tackifier compounds and methods of using the same” (Iowa State University Research Foundation, Inc., priority 2012, dated 2019).

The structures appear in SMILES notation.

As for `O=C(O)CCCC(=O)O[C@H]1CO[C@H]2[C@@H]1OC[C@H]2OC(=O)CCCC(=O)O` [3b], the “Water solubility (in words)” value in data set [1] is listed as “substantially water-insoluble”. The compound also came in with a Tg in data set [2] of −24 °C.
For `O=C(O)CCC(=O)OC1COC2C(OC(=O)CCC(=O)O)COC12` (stereo not shown) [3a] the same measures were “substantially water-soluble” and −2 °C.
For the compound `O=C(O)CCCC(=O)O[C@@H]1CO[C@H]2[C@@H]1OC[C@H]2OC(=O)CCCC(=O)O` [5b], the Tg in data set [2] was −26 °C.
Still for that read-out and setting: the same measure for `O=C(O)CCC(=O)O[C@@H]1CO[C@H]2[C@@H]1OC[C@H]2OC(=O)CCC(=O)O` [5a]: −2 °C; for `O=C(O)C=CC(=O)O[C@H]1CO[C@H]2[C@@H]1OC[C@H]2OC(=O)C=CC(=O)O` [3c]: 16 °C.
